Results as given in the supplement of paper PMC5908809.

Tests used:
IMC-1 (IL-2 20 ng/mL) [1] = test: percent inhibition of viability; higher = more inhibition; settings: 72 h
SNK-6 (IL-2 2.5 ng/mL) [2] = test: as above; settings: 72 h
YT (IL-2 2.5 ng/mL) [3] = test: as above; settings: 72 h
KHYG-1 (IL-2 2.5 ng/mL) [4] = test: as above; settings: 72 h
NK-YS (IL-2 2.5 ng/mL) [5] = test: as above; settings: 72 h
[6] = system: normal primary NK cells, pool 2 (3 donors) (IL-2 2.5 ng/mL); test: as above; settings: 72 h
KAI3 (IL-2 2.5 ng/mL) [7] = test: as above; settings: 72 h
[8] = system: normal primary NK cells, pool 1 (3 donors), resting (IL-2 0 ng/mL); test: as above; settings: 72 h
NK-92 (IL-2 2.5 ng/mL) [9] = test: as above; settings: 72 h
NKL (IL-2 2.5 ng/mL) [10] = test: as above; settings: 72 h
[11] = system: normal primary NK cells, pool 1 (3 donors) (IL-2 2.5 ng/mL); test: as above; settings: 72 h
DERL-7 (IL-2 2.5 ng/mL) [12] = test: as above; settings: 72 h
[13] = system: normal primary NK cells, pool 3 (3 donors) (IL-2 2.5 ng/mL); test: as above; settings: 72 h
[14] = system: normal NK cells expanded with K562-aAPC; test: drug sensitivity score (DSS) (DSS units); higher = more sensitive; extreme values may be limits of the assay; settings: 72 h; IL-2 2.5 ng/mL
Experimental: (§1)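 Drug sensitivity and resistance testing on K562-aAPC-expanded normal NK cells: 5 concentrations (10-fold steps over a 10,000-fold range), 72 h at 37 °C, viability by CellTiter-Glo normalised to DMSO and benzethonium chloride controls; DSS from the fitted curve.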

[15] = system: normal NK cells expanded with K562-aAPC; test: percent inhibition of viability; higher = more inhibition; settings: 72 h, IL-2 2.5 ng/mL
Experimental: as §1

IMC-1 (IL-2 20 ng/mL) [16] = test: drug sensitivity score (DSS) (DSS units); higher = more sensitive; extreme values may be limits of the assay; settings: 72 h
SNK-6 (IL-2 2.5 ng/mL) [17] = test: as above; settings: 72 h
YT (IL-2 2.5 ng/mL) [18] = test: as above; settings: 72 h
KHYG-1 (IL-2 2.5 ng/mL) [19] = test: as above; settings: 72 h
NK-YS (IL-2 2.5 ng/mL) [20] = test: as above; settings: 72 h
[21] = system: normal primary NK cells, pool 2 (3 donors) (IL-2 2.5 ng/mL); test: as above; settings: 72 h
KAI3 (IL-2 2.5 ng/mL) [22] = test: as above; settings: 72 h
[23] = system: normal primary NK cells, pool 1 (3 donors), resting (IL-2 0 ng/mL); test: as above; settings: 72 h
NK-92 (IL-2 2.5 ng/mL) [24] = test: as above; settings: 72 h
NKL (IL-2 2.5 ng/mL) [25] = test: as above; settings: 72 h
[26] = system: normal primary NK cells, pool 1 (3 donors) (IL-2 2.5 ng/mL); test: as above; settings: 72 h
DERL-7 (IL-2 2.5 ng/mL) [27] = test: as above; settings: 72 h
[28] = system: normal primary NK cells, pool 3 (3 donors) (IL-2 2.5 ng/mL); test: as above; settings: 72 h

CCCS(=O)(=O)Nc1ccc(F)c(C(=O)c2c[nH]c3ncc(-c4ccc(Cl)cc4)cc23)c1F [Vemurafenib] (max concentration tested 10000 nM)
percent inhibition of viability [%]
Settings | 1 nM | 10 nM | 100 nM | 1000 nM | 10000 nM
DERL-7 (IL-2 2.5 ng/mL) [12] | 3.23 | 0.38 | 4.34 | 15.4 | 79.5
IMC-1 (IL-2 20 ng/mL) [1] | -6.37 | -7.47 | -1.05 | -3.36 | 37.8
KAI3 (IL-2 2.5 ng/mL) [7] | -2.25 | -4.57 | -1.04 | 12.3 | 75.2
KHYG-1 (IL-2 2.5 ng/mL) [4] | 1.21 | -7.43 | 3.43 | 42.5 | 105
NK-92 (IL-2 2.5 ng/mL) [9] | -0.79 | 1.62 | 12 | 22.6 | 89.5
NK-YS (IL-2 2.5 ng/mL) [5] | -2.8 | -10.1 | -3.62 | 0.91 | 77.1
NKL (IL-2 2.5 ng/mL) [10] | -13.6 | -17.7 | -12.3 | 12.2 | 73.1
SNK-6 (IL-2 2.5 ng/mL) [2] | -12.9 | -2.01 | -17 | -0.04 | 92.6
YT (IL-2 2.5 ng/mL) [3] | 1.23 | -1.61 | 4.12 | 16.2 | 98.7
[6] | -1.54 | -1.23 | 6.03 | 0.86 | 9.89
[8] | 3.45 | -3.02 | 6.61 | 23.4 | 23.8
[11] | -3.98 | -7.14 | 1.09 | 0.31 | -3.81
[13] | 0.76 | -2.71 | 6.1 | 0.26 | 0.17
[15] | -5.54 | -6.29 | -9.37 | -4.54 | 5.8

Settings | drug sensitivity score
DERL-7 (IL-2 2.5 ng/mL) [27] | 6.92
IMC-1 (IL-2 20 ng/mL) [16] | 1.59
KAI3 (IL-2 2.5 ng/mL) [22] | 6.2
KHYG-1 (IL-2 2.5 ng/mL) [19] | 11.1
NK-92 (IL-2 2.5 ng/mL) [24] | 8.16
NK-YS (IL-2 2.5 ng/mL) [20] | 4.38
NKL (IL-2 2.5 ng/mL) [25] | 6.06
SNK-6 (IL-2 2.5 ng/mL) [17] | 5.17
YT (IL-2 2.5 ng/mL) [18] | 8.15
[14] | 0
[21] | 0
[23] | 4.54
[26] | 0
[28] | 0
